# Assay results: US10138510B2, “Dual labeling methods for measuring cellular proliferation” (LIFE TECHNOLOGIES CORPORATION, priority 2008, dated 2018)
# Tests used:
# Type in all cases: cell-based
# [1] = tested on: newly synthesized DNA of cells; test: Simultaneous EdU and BrdU pulse, incorporation into DNA detected by flow cytometry; settings: for signal detected after simultaneous pulse: simultaneous pulse of EdU 20 μM and BrdU 10 μM, FIG. 3B
# Description: FIG. 3A-1, FIG. 3A-2 and FIG. 3A-3 present a series of graphs showing populations of cells treated with a first pulse label of EdU (10 μm) and a second pulse label of BrdU (10 μm) as detected by flow cytometry. The first graph (FIG. 3A-1) is divided into four quadrants with the first quadrant (Q1) located in the upper left hand corner, the second quadrant (Q2) located in the upper right hand corner, the third quadrant (Q3) located in the lower left hand corner, and the fourth quadrant (Q4) located in the lower right hand corner. Populations of cells in quadrant Q3 (lower left) are negative for both EdU (first pulse) and BrdU (second pulse). Populations of cells in quadrant Q2 (upper right) are positive for both EdU (first pulse) and BrdU (second pulse). FIG. 3A-2 is a graph of EdU vs. DNA cell cycle with gating P5>P1. […] FIG. 3B presents a graph showing populations of cells treated with simultaneous pulse of EdU at a concentration of 20 μM and BrdU at a concentration of 10 μM as detected by flow cytometry. The graph is divided into four quadrants with the first quadrant (Q1) located in the upper left hand corner, the second quadrant (Q2) located in the upper right hand corner, the third quadrant (Q3) located in the lower left hand corner, and the fourth quadrant (Q4) located in the lower right hand corner. Populations of cells in quadrant Q3 (lower left) are negative for both EdU and BrdU. Populations of cells in quadrant Q2 (upper right) are positive for both EdU and BrdU.
# FIG. 5A, FIG. 5B, FIG. 5C and FIG. 5D present a series of graphs showing that when cells are treated with EdU and BrdU simultaneously, only a population of DNA labeled with BrdU is detected by flow cytometry. […] The third and fourth graphs (FIGS. 5C and 5D, respectively) show the dual parameter plot of fluorescent nucleotide label vs. DNA cell cycle treated with EdU and BrdU simultaneously. Only BrdU was incorporated into cells treated simultaneously with EdU and BrdU, as shown in the third and fourth graphs. […]
# [2] = tested on: Jurkat T-cell lymphocyte cells; test: Dual pulse EdU/BrdU labeling of cellular proliferation after colchicine cell cycle block, flow cytometry
# Method: A standard method of preparing cultured cells for the measurement of newly synthesized DNA (cellular proliferation) is set up according to known conditions for cells to be actively growing by providing the proper media and nutrient requirements. In the present example, Jurkat T-cell lymphocyte cell cultures were diluted one to four to a density of 2×10^5 cells/ml. The cultures were treated with a cell cycle blocking agent, colchicine, which stops proliferation at the G2M stage of the cell cycle, at concentrations of 0, 32 nM, 75 nM, 125 nM, 250 nM, 500 nM and 1 μM for 18 hours. To each condition, the first nucleoside analog, EdU, was then added at 10 μM, a concentration appropriate for incorporation in the DNA of cells undergoing DNA synthesis. The cells were grown in the presence of EdU for one hour. The cells were then centrifuged to pellet the cells and remove the media with blocking agent, and cells had replacement of fresh media. The cell cultures were allowed to recover for two hours before an appropriate amount of the second nucleoside analog, BrdU, was added at a 10 μM concentration, and the cells were grown for one hour. The cells were then harvested, washed, fixed with 70% ice-cold ETOH and stored at 4° C. until use. The cells were then washed and resuspended in 4M HCL for 20 minutes at room temperature. A phosphate/critric acid buffer was added, and the cells washed twice and resuspended in 0.1% TritonX/1% BSA/PBS at 1×10^7/ml. Then, labeling of the EdU was performed by adding click chemistry based reagents, including a solution comprised of CuSO4 in Tris-buffered saline and Alexa Fluor® 647-azide (650 nm excitation maxima/670 nm emission maxima) (Molecular Probes™/Invitrogen™, Carlsbad, Calif.). The cells were then washed with 0.1% TritonX/1% BSA/PBS. […]
# A series of result graphs labeled FIGS. 12-1A, 12-1B, 12-1C, 12-1D, 12-1E, 12-2F, 12-2G, 12-2H, 12-2I and 12-2J show populations of cells treated with a first pulse label of EdU (20 μM) and a second pulse label of BrdU (10 μm) as detected by flow cytometry. […]
# [3] = tested on: TF-1a human erythroblast cells; test: Dual pulse EdU/BrdU labeling of cellular proliferation with varying GM-CSF, flow cytometry
# Method: A standard method of preparing cultured cells for the measurement of newly synthesized DNA (cellular proliferation) is set up according to known conditions for cells to be actively growing by providing the proper media and nutrient requirements. In the present example, TF-1a human erythroblast cell cultures were diluted one to four to a density of 2×10^5 cells/ml. Culture media contains varying amounts of GM-CSF, or granulocyte-macrophage colony-stimulating factor, at amounts equal to full (2 ng/ml) or ¼ (0.5 ng/ml) recommended concentration of GM-CSF, and no GM-CSF. After these cells had been growing 18 hours, the first nucleoside analog, EdU, was added at 20 μM, a concentration appropriate for incorporation in the DNA of cells undergoing DNA synthesis. The cells were grown in the presence of EdU for three hours. After initial period of growth and without the removal of EdU through the washing of the cells in fresh media, an appropriate amount of the competitive nucleoside analog, BrdU, was added at a 10 μM concentration, and GM-CSF was added at the same time as the BrdU in amounts to equal the full amount recommended for GM-CSF concentration of 2 ng/ml or kept at the same initial concentration of GM-CSF. The cells were grown for six hours. The cells were then harvested, washed, fixed with 70% ice-cold ETOH and stored at 4° C. until use. The cells were then washed and resuspended in 4M HCL for 20 minutes at room temperature. A phosphate/critric acid buffer was added, and the cells washed twice and resuspended in 0.1% TritonX/1% BSA/PBS at 1×10^7/ml. Then, labeling of the EdU was performed by adding click chemistry based reagents, including a solution comprised of CuSO4 in Tris-buffered saline and Alexa Fluor® 647-azide (650 nm excitation maxima/670 nm emission maxima) (Molecular Probes™/Invitrogen™, Carlsbad, Calif.). The cells were then washed with 0.1% TritonX/1% BSA/PBS. After this, labeling of the BrdU was performed using the anti-BrdU antibody FITC conjugate (494 nm excitation maxima/518 nm emission maxima) (Exalpha Biologicals, Inc., Maynard Calif.). To detect DNA content, a nucleic acid dye, DAPI (358 nm excitation maxima/461 nm emission maxima) (Molecular Probes™/Invitrogen™, Carlsbad, Calif.) was added. Detection of the three labels was performed by flow cytometry. To detect the BrdU label, 488 nm excitation was used, with a 530/30 nm bandpass. To detect the EdU label, 633 nm excitation was used, with a 660/20 nm bandpass. To detect DNA content, 355 nm excitation was used, with a 450/50 nm bandpass.
# [4] = GM-CSF 0.5 ng/ml with EdU pulse, 0.5 ng/ml with BrdU pulse
# [5] = GM-CSF 0.5 ng/ml with EdU pulse, 2 ng/ml with BrdU pulse
# [6] = GM-CSF 2 ng/ml (control) with EdU pulse, 2 ng/ml (control) with BrdU pulse, EdU 20 μM 3 h, BrdU 10 μM 6 h
# [7] = no GM-CSF with EdU pulse, GM-CSF 2 ng/ml with BrdU pulse
compound,measurement,setting,value
"C#Cc1cn([C@H]2C[C@H](O)[C@@H](CO)O2)c(=O)[nH]c1=O [EdU, 5-ethynyl 2′-deoxyuridine]",signal detected after simultaneous pulse,[1],no signal detected
COc1cc2c(c(OC)c1OC)-c1ccc(OC)c(=O)cc1[C@@H](NC(C)=O)CC2 [colchicine],proliferation (EdU and BrdU positive events) vs control,"[2]; 32 nM colchicine for 18 hours before the first pulse, FIGS. 12-2F to 12-2J",decreased proliferation
same,proliferation with both pulses of EdU and BrdU,"[2]; all colchicine concentrations (32 nM to 1 μM), 18 hours, FIG. 11",decreased proliferation
same,recovery of proliferation after removal of colchicine (second pulse of BrdU),"[2]; any colchicine concentration, two hours recovery in fresh media",no recovery
"O=c1[nH]c(=O)n([C@H]2C[C@H](O)[C@@H](CO)O2)cc1Br [BrdU, 5-bromo 2′-deoxyuridine]",incorporation into DNA in the presence of both nucleoside analogs,"[1]; EdU and BrdU added simultaneously, Example 3, FIGS. 5A-5D",only the BrdU analog is incorporated into the DNA
same,signal detected after simultaneous pulse,[1],only positive signal detected from the BrdU
"GM-CSF: granulocyte-macrophage colony-stimulating factor, growth factor in TF-1a culture media",proliferative recovery of cells,"[3]; 0.5 ng/ml GM-CSF, addition of GM-CSF to 2 ng/ml with the BrdU pulse",does not show any proliferative recovery
same,% BrdU Pos,[3]; [4],66.3%
same,% EdU Pos,[3]; [4],57%
same,% BrdU Pos,[3]; [5],65.1%
same,% EdU Pos,[3]; [5],57.5%
same,% BrdU Pos,[3]; [6],72.2%
same,% EdU Pos,[3]; [6],53.9%
same,proliferation over control,[3]; dual pulse with 0.5 ng/ml GM-CSF vs 2 ng/ml control,only a slight decrease of proliferation over control
same,% BrdU Pos,[3]; [7],53%
same,% EdU Pos,[3]; [7],42.3%
same,proliferative recovery of cells (BrdU positivity),"[3]; no GM-CSF with EdU pulse, GM-CSF added with just the BrdU pulse",some proliferative recovery
